# In patent US20100311714A1, “1H-IMIDAZO[4,5-c]QUINOLINONE COMPOUNDS” (priority 2009, published 2010):
# Like-named read-outs stand apart in the source and are kept apart here.
# Target: T1, PI3K beta (Homo sapiens, UniProt P42338)
# T1 construct: for the full-length p110-b subunit are generated and fused by overlapping PCR; His tag (C); made in house; host or cells: baculovirus BV949; Tn5 (Trichoplusia ni) or TiniPro insect cells
# Experiment: PI3K beta kinase assay (Kinase-Glo luminescence)
# Type: biochemical
# Procedure, shortened: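 PI3Kβ construct BV949 (p85 iSH2–p110β full-length, C-His), 25 nM, reacted with 1 μM ATP and 10 μg/mL phosphatidylinositol in Tris pH 7.5, MgCl2, NaCl, CHAPS, DTT buffer, 60 min at room temperature. Remaining ATP by Kinase-Glo luminescence; IC50 from 4-parameter logistic fit of 8 concentrations.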
# T1 sequence (P42338 with tags, fused parts or gaps limits assumed): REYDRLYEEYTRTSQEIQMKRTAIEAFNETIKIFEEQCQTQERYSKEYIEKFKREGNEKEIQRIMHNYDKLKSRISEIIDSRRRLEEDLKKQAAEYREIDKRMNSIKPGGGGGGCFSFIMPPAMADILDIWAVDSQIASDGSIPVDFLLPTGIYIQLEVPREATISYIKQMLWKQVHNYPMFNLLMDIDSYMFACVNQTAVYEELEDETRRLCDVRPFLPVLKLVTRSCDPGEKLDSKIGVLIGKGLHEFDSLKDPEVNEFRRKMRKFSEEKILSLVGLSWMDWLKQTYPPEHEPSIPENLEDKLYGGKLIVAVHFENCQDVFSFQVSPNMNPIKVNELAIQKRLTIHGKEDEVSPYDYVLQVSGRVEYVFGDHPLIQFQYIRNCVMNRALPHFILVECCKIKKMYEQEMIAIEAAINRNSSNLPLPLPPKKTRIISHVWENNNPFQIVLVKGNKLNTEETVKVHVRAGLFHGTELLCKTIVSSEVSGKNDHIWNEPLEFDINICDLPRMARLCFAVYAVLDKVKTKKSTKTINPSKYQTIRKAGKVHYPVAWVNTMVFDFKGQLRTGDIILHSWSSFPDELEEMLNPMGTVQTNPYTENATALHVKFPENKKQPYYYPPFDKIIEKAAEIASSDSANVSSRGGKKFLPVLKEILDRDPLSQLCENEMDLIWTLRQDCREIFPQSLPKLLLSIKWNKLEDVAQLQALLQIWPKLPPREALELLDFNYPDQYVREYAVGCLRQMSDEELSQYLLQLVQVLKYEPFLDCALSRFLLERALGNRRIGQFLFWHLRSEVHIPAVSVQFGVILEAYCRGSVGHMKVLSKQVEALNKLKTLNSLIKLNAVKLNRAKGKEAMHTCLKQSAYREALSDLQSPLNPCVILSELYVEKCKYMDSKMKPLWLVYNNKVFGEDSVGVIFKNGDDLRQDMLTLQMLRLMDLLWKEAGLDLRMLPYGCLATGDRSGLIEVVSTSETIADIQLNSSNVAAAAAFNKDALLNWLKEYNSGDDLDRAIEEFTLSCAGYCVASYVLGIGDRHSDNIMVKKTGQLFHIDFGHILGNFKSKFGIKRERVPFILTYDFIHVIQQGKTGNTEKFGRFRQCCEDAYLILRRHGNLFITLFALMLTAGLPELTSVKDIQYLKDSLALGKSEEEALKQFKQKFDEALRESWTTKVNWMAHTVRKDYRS
SMILES,IC50 (read-out: EPK_PI3Kbeta/IC50),IC50 (read-out: PI3Kbeta/IC50)
"CNc1ccc(-c2ccc3ncc4c(c3c2)n(-c2ccc(F)nc2C)c(=O)n4C)cn1 [Example 7.4, 1-(6-Fluoro-2-methyl-pyridin-3-yl)-3-methyl-8-(6-methylamino-pyridin-3-yl)-1,3-dihydro-imidazo[4,5-c]quinolin-2-one]",–,263 nM
"COc1ccc(-c2ccc3ncc4c(c3c2)n(-c2cnccc2C)c(=O)n4C)cn1 [Example 4.3, 8-(6-Methoxy-pyridin-3-yl)-3-methyl-1-(4-methyl-pyridin-3-yl)-1,3-dihydro-imidazo[4,5-c]quinolin-2-one]",–,601 nM
"COc1ccc(-c2ccc3ncc4c(c3c2)n(-c2cccnc2C)c(=O)n4C)cn1 [Example 2.12, 8-(6-Methoxy-pyridin-3-yl)-3-methyl-1-(2-methyl-pyridin-3-yl)-1,3-dihydro-imidazo[4,5-c]quinolin-2-one]",–,132 nM
"Cn1c(=O)n(-c2cccnc2)c2c3cc(-c4ccc(CO)nc4)ccc3ncc21 [Example 5.1, 8-(6-Hydroxymethyl-pyridin-3-yl)-3-methyl-1-pyridin-3-yl-1,3-dihydro-imidazo[4,5-c]quinolin-2-one]",–,801 nM
"Cc1cccnc1-n1c(=O)n(C)c2cnc3ccc(-c4cnc(N)c(C(F)(F)F)c4)cc3c21 [Example 3.12, 8-(6-Amino-5-trifluoromethyl-pyridin-3-yl)-3-methyl-1-(3-methyl-pyridin-2-yl)-1,3-dihydro-imidazo[4,5-c]quinolin-2-one]",–,109 nM
"CNc1ncc(-c2ccc3ncc4c(c3c2)n(-c2ccc(N3CC(F)(F)C3)nc2C)c(=O)n4C)cn1 [Example 24.1, 1-[6-(3,3-Difluoro-azetidin-1-yl)-2-methyl-pyridin-3-yl]-3-methyl-8-(2-methylamino-pyrimidin-5-yl)-1,3-dihydro-imidazo[4,5-c]quinolin-2-one]",1010 nM,–
"COc1cc(-c2ccc3ncc4c(c3c2)n(-c2cccnc2C)c(=O)n4C)cnc1C(OC)OC [Example 2.27, 8-(6-Dimethoxymethyl-5-methoxy-pyridin-3-yl)-3-methyl-1-(2-methyl-pyridin-3-yl)-1,3-dihydro-imidazo[4,5-c]quinolin-2-one]",1240 nM,–

# Continued, values first:
IC50 (read-out: EPK_PI3Kbeta/IC50),IC50 (read-out: PI3Kbeta/IC50),SMILES
216 nM,–,"Cc1nc(N2CC[C@H](O)C2)ccc1-n1c(=O)n(C)c2cnc3ccc(-c4cncc(OC(C)C)c4)cc3c21 [Example 32.8, 1-[6-((S)-3-Hydroxy-pyrrolidin-1-yl)-2-methyl-pyridin-3-yl]-8-(5-isopropoxy-pyridin-3-yl)-3-methyl-1,3-dihydro-imidazo[4,5-c]quinolin-2-one]"
40 nM,–,"Cc1ncccc1-n1c(=O)n(C)c2cnc3ccc(-c4cncc(NC(C)C)c4)cc3c21 [Example 2.24, 8-(5-Isopropylamino-pyridin-3-yl)-3-methyl-1-(2-methyl-pyridin-3-yl)-1,3-dihydro-imidazo[4,5-c]quinolin-2-one]"
30 nM,–,"Cc1nc(C(C)(C)O)ccc1-n1c(=O)n(C)c2cnc3ccc(-c4cncc(C5(C#N)CCC5)c4)cc3c21 [Example 31.8, 1-(5-{1-[6-(1-Hydroxy-1-methyl-ethyl)-2-methyl-pyridin-3-yl]-3-methyl-2-oxo-2,3-dihydro-1H-imidazo[4,5-c]quinolin-8-yl}-pyridin-3-yl)-cyclobutanecarbonitrile]"
625 nM,–,"CCNc1ncc(-c2ccc3ncc4c(c3c2)n(-c2ccc(C(C)(C)O)nc2C)c(=O)n4C)cn1 [Example 31.7, 8-(2-Ethylamino-pyrimidin-5-yl)-1-[6-(1-hydroxy-1-methyl-ethyl)-2-methyl-pyridin-3-yl]-3-methyl-1,3-dihydro-imidazo[4,5-c]quinolin-2-one]"
152 nM,–,"CCOc1cc(-c2ccc3ncc4c(c3c2)n(-c2ccc(F)nc2C)c(=O)n4C)cnc1COC [Example 7.5, 8-(5-Ethoxy-6-methoxymethyl-pyridin-3-yl)-1-(6-fluoro-2-methyl-pyridin-3-yl)-3-methyl-1,3-dihydro-imidazo[4,5-c]quinolin-2-one]"
193 nM,–,"COCc1ncc(-c2ccc3ncc4c(c3c2)n(-c2ccc(N3CCC3)nc2C)c(=O)n4C)cc1OC(C)C [Example 23.2, 1-(6-Azetidin-1-yl-2-methyl-pyridin-3-yl)-8-(5-isopropoxy-6-methoxymethyl-pyridin-3-yl)-3-methyl-1,3-dihydro-imidazo[4,5-c]quinolin-2-one]"
171 nM,–,"Cc1nc(N2CCC2)ccc1-n1c(=O)n(C)c2cnc3ccc(-c4cncc(OC(C)C)c4)cc3c21 [Example 23.9, 1-(6-Azetidin-1-yl-2-methyl-pyridin-3-yl)-8-(5-isopropoxy-pyridin-3-yl)-3-methyl-1,3-dihydro-imidazo[4,5-c]quinolin-2-one]"
353 nM,–,"COCc1ncc(-c2ccc3ncc4c(c3c2)n(-c2ccc(N3CCC3)nc2C)c(=O)n4C)cc1OC [Example 23.6, 1-(6-Azetidin-1-yl-2-methyl-pyridin-3-yl)-8-(5-methoxy-6-methoxymethyl-pyridin-3-yl)-3-methyl-1,3-dihydro-imidazo[4,5-c]quinolin-2-one]"
45 nM,–,"Cc1nc(F)ccc1-n1c(=O)n(C)c2cnc3ccc(-c4cncc(C(C)(C)O)c4)cc3c21 [Example 7.8, 1-(6-Fluoro-2-methyl-pyridin-3-yl)-8-[5-(1-hydroxy-1-methyl-ethyl)-pyridin-3-yl]-3-methyl-1,3-dihydro-imidazo[4,5-c]quinolin-2-one]"
454 nM,–,"CCNc1ncc(-c2ccc3ncc4c(c3c2)n(-c2ccc(N3CC[C@@H](O)C3)nc2C)c(=O)n4C)cc1COCC [Example 34.4, 8-(5-Ethoxymethyl-6-ethylamino-pyridin-3-yl)-1-[6-((R)-3-hydroxy-pyrrolidin-1-yl)-2-methyl-pyridin-3-yl]-3-methyl-1,3-dihydro-imidazo[4,5-c]quinolin-2-one]"
